# Experimental data as given in ChEMBL document CHEMBL4665679, “Ocular Disease Therapeutics: Design and Delivery of Drugs for Diseases of the Eye” (J Med Chem, 2020).
# How the values were obtained:
# Complement factor D [1] = biological target: T1, Complement factor D (Homo sapiens, UniProt P00746); assay: Binding affinity to human CFD at 100 uM by WaterLOGSY NMR analysis
# [2] = Solubility of compound by NMR analysis; assay type: physicochemical
# [3] = Equilibrium solubility in pH 6.8 potassium phosphate buffer incubated for 16 hrs by shake flask method; assay type: physicochemical
# Complement C5 = Complement C5 (Homo sapiens, UniProt P01031); assay: Inhibition of C5 complement protein in 2% human serum incubated for 15 mins; assay type: cell-free
# [4] = Reduction of intraocular pressure in human at 0.1% administered topically to the eye and measured at 4 hr post-instillation during phase 1 clinical trial by tonometry; assay type: functional
# [5] = Reduction of intraocular pressure in human at 0.4%, OU administered twice daily for 8 weeks cotreated with timolol and measured every 2 weeks at 2 hrs post-instillation by tonometry; assay type: functional
# [6] = Reduction of intraocular pressure in human at 0.4%, OU administered twice daily for 8 weeks cotreated with timolol and measured every 2 weeks by tonometry; assay type: functional
# [7] = Reduction of intraocular pressure in human at 0.4%, OU administered twice daily for 8 weeks and measured every 4 weeks at 8 hrs post instillation during phase 2 clinical trial by tonometry; assay type: functional
# [8] = Reduction of intraocular pressure in human at 0.4%, OU administered twice daily for 52 weeks and measured every 2 weeks for first month and then every 4 weeks by tonometry; assay type: functional
# [9] = Reduction of intraocular pressure in human at 0.1%, OU administered twice daily for 8 weeks and measured every 4 weeks at 8 hrs post instillation during phase 2 clinical trial by tonometry; assay type: functional
# [10] = Reduction of intraocular pressure in human at 0.4%, OU administered twice daily for 52 weeks and measured every 2 weeks for first month and then every 4 weeks at 2 hr post-instillation by tonometry; assay type: functional
# [11] = Reduction of intraocular pressure in human at 0.4%, OU administered twice daily for 8 weeks cotreated-with-latanoprost and measured every 2 weeks at 2 hrs post-instillation by tonometry; assay type: functional
# [12] = Reduction of intraocular pressure in human at 0.2%, OU administered twice daily for 8 weeks and measured every 4 weeks at 8 hrs post instillation during phase 2 clinical trial by tonometry; assay type: functional
# [13] = Reduction of intraocular pressure in human at 0.024% administered topically to eye once daily and measured after 7 day during phase2 clinical trial by tonometry; assay type: functional
# [14] = Reduction of intraocular pressure in human at 0.024%, OU administered once daily and measured at 4 weeks by tonometry; assay type: functional
# [15] = Reduction of intraocular pressure in human at 0.024%, OU administered once daily and measured at 8 am time point after 2 weeks by tonometry; assay type: functional
# [16] = Reduction of intraocular pressure in human at 0.024%, OU administered once daily and measured at 4 pm time point after 3 months by tonometry; assay type: functional; conditions: 2190 h
# [17] = Reduction of intraocular pressure in human at 0.024%, OU administered to fellow-eye once daily for 14 days and measured for 24 hrs on day 14 by tonometry; assay type: functional; conditions: time 14 day
# [18] = Reduction of intraocular pressure in human at 0.024%, OU administered once daily and measured at 4 pm time point after 6 weeks by tonometry; assay type: functional
# [19] = Reduction of intraocular pressure in human at 0.024%, OU administered once daily and measured at 12 pm time point after 3 months by tonometry; assay type: functional; conditions: 2190 h
# [20] = Reduction of intraocular pressure in human at 0.024%, OU administered once daily and measured at 4 pm time point after 2 weeks by tonometry; assay type: functional
# [21] = Reduction of intraocular pressure in human at 0.024% administered topically to eye once daily and measured after 28 day during phase2 clinical trial by tonometry; assay type: functional
# [22] = Reduction of intraocular pressure in human at 0.024%, OU administered once daily and measured at 1 year by tonometry; assay type: functional; conditions: 8760 h
# [23] = Reduction of intraocular pressure in human at 0.024%, OU administered once daily and measured at 8 am time point after 3 months by tonometry; assay type: functional; conditions: 2190 h
# [24] = Reduction of intraocular pressure in human at 0.024%, OU administered once daily and measured at 8 am time point after 6 weeks by tonometry; assay type: functional
# [25] = Reduction of intraocular pressure in human at 0.024% administered topically to eye once daily for 4 weeks and measured for 8 hrs during diurnal/wake period by tonometry; assay type: functional
# [26] = Reduction of intraocular pressure in human at 0.024% administered topically to eye once daily and measured after 14 day during phase2 clinical trial by tonometry; assay type: functional
# [27] = Reduction of intraocular pressure in human at 0.024%, OU administered once daily and measured at 12 pm time point after 6 weeks by tonometry; assay type: functional
# [28] = Reduction of intraocular pressure in human at 0.024%, OU administered once daily for 14 days and measured for 24 hrs on day 14 by tonometry; assay type: functional; conditions: time 14 day
# [29] = Reduction of intraocular pressure in human at 0.024% administered topically to eye once daily for 4 weeks and measured for 8 hrs during nocturnal/sleep period by tonometry; assay type: functional
# [30] = Reduction of intraocular pressure in human at 0.024%, OU administered once daily and measured at 12 pm time point after 2 weeks by tonometry; assay type: functional
# Rattus norvegicus [31] = assay: Neuroprotective activity in Wistar rat model of streptozotocin-induced diabetic retinopathy assessed as decrease in retinal ganglion cells at 1 mg/kg, po dosed until 2 months starting 7 days prior to streptozotocin injection (reference value: 44%); assay type: functional; design: scale not given: the % may be the effect or the level left; conditions: 1460 h
# Rattus norvegicus [32] = assay: Neuroprotective activity in Wistar rat model of streptozotocin-induced diabetic retinopathy assessed as decrease in retinal ganglion cells at 5 mg/kg, po dosed until 2 months starting 7 days prior to streptozotocin injection (reference value: 44%); assay type: functional; design: scale not given: the % may be the effect or the level left; conditions: 1460 h
# [33] = Half life in human cornea by HPLC analysis; assay type: ADME, tissue-based
# [34] = Half life in Dutch Belted rabbit cornea by HPLC analysis; assay type: ADME, tissue-based, Oryctolagus cuniculus; conditions: in vivo
# [35] = Half life in Beagle dog cornea by HPLC analysis; assay type: ADME, tissue-based, Canis lupus familiaris; conditions: in vivo
# [36] = Half life in pig cornea by HPLC analysis; assay type: ADME, tissue-based, Sus scrofa; conditions: in vivo
# [37] = Half life in cynomolgus monkey cornea by HPLC analysis; assay type: ADME, tissue-based, Macaca fascicularis; conditions: in vivo
# [38] = Inhibition of N-terminal His-tagged human KLK7 (37 to 253 residues) Y180R mutant expressed in Escherichia coli BL21(DE3) using Ac-Glu-Phe-Lys-Pro-Ile-Leu-Trp-Arg-Leu-Gly-Cys(PT14)-Glu-NH2 as substrate preincubated for 1 hr followed by substrate addition by fluorescence-lifetime assay
# Complement factor D [39] = biological target: T1, Complement factor D; assay: Inhibition of recombinant human CFD catalytic domain (G24 to A253 residues) expressed in Escherichia coli (Rosetta) using Z-Lys-thiobenzyl and 2,4-dinitrobenzenesulfonyl-2,7-[…]-fluorecein as substrate preincubated for 1 hr followed by substrate addition by spectrofluorimetric method
# Complement factor D [40] = biological target: T1, Complement factor D; assay: Inhibition of CFD in human RBC model of anti-CD55/anti-CD59-induced paroxysmal nocturnal hemoglobinuria assessed as reduction in complement fragment C3 deposition by FACS analysis; assay type: tissue-based
# Complement factor D [41] = biological target: T1, Complement factor D; assay: Inhibition of CFD in 50% human whole blood assessed as reduction in alternate complement pathway-mediated MAC formation pre-incubated for 15 mins followed by zymosan suspension addition and measured after 40 mins by ELISA; assay type: tissue-based
# [42] = biological target: T2, Nitric oxide synthase, inducible (Mus musculus, UniProt P29477); assay: Inhibition of LPS/IFN-gamma induced NO-dependent iNOS activity in mouse RAW 264.7 cells incubated for 16 hrs by Griess reagent based assay; assay type: cell-based, RAW264.7
# T2 sequence (P29477 whole entry): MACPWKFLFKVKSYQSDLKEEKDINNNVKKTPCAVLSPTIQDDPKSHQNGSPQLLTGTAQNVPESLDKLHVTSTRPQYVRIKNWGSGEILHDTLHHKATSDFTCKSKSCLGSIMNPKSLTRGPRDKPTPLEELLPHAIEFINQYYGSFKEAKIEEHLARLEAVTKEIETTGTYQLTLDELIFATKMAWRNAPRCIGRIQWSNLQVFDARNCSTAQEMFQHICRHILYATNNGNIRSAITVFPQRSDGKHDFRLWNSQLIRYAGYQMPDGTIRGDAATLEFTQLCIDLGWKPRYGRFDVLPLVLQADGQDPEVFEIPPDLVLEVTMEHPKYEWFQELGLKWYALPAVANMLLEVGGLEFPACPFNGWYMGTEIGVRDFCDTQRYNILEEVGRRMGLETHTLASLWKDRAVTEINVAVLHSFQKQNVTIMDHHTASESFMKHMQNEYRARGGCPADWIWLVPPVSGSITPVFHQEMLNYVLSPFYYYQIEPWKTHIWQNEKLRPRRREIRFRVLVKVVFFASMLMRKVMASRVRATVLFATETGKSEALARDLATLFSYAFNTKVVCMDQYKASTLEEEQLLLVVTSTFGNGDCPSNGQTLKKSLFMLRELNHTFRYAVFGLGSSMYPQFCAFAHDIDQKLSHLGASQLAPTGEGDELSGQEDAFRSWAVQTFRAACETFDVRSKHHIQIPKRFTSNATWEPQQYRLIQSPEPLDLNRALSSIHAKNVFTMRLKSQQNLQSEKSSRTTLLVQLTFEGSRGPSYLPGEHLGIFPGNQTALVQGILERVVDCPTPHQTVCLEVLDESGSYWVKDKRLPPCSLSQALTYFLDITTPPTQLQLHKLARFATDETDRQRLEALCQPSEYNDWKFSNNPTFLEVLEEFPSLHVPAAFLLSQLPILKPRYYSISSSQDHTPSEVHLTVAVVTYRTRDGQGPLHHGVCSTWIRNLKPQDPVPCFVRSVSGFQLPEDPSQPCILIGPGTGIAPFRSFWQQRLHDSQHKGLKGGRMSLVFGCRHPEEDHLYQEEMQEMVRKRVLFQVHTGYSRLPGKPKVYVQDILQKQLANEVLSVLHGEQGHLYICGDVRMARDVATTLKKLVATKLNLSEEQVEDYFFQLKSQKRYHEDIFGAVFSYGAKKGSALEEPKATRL
# T1 sequence (P00746 whole entry): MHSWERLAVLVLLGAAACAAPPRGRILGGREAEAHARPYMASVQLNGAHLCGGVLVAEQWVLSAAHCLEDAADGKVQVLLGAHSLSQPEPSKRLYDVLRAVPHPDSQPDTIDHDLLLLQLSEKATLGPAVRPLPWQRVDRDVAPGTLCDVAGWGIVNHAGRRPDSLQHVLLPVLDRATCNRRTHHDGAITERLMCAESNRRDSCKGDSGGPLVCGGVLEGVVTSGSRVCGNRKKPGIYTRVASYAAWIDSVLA
# Chain of Complement C5 (P01031 19-673 limits assumed): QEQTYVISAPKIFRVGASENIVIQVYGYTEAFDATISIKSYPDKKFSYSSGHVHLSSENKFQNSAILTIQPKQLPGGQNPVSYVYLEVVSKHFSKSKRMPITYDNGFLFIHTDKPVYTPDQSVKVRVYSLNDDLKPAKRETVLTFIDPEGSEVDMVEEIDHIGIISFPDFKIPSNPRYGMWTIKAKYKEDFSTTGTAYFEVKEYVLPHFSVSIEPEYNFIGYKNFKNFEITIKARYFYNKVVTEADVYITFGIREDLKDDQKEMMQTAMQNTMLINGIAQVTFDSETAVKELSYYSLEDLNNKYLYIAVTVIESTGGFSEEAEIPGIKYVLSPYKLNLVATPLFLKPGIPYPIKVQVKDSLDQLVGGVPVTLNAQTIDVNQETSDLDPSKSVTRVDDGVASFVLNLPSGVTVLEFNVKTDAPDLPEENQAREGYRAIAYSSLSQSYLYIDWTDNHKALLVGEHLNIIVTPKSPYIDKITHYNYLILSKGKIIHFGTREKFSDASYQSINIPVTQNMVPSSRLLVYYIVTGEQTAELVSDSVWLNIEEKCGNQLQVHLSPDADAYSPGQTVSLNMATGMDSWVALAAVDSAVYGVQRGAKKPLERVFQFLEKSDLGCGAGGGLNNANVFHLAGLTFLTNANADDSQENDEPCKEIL
# Chain of Complement C5 (P01031 678-1676 limits assumed): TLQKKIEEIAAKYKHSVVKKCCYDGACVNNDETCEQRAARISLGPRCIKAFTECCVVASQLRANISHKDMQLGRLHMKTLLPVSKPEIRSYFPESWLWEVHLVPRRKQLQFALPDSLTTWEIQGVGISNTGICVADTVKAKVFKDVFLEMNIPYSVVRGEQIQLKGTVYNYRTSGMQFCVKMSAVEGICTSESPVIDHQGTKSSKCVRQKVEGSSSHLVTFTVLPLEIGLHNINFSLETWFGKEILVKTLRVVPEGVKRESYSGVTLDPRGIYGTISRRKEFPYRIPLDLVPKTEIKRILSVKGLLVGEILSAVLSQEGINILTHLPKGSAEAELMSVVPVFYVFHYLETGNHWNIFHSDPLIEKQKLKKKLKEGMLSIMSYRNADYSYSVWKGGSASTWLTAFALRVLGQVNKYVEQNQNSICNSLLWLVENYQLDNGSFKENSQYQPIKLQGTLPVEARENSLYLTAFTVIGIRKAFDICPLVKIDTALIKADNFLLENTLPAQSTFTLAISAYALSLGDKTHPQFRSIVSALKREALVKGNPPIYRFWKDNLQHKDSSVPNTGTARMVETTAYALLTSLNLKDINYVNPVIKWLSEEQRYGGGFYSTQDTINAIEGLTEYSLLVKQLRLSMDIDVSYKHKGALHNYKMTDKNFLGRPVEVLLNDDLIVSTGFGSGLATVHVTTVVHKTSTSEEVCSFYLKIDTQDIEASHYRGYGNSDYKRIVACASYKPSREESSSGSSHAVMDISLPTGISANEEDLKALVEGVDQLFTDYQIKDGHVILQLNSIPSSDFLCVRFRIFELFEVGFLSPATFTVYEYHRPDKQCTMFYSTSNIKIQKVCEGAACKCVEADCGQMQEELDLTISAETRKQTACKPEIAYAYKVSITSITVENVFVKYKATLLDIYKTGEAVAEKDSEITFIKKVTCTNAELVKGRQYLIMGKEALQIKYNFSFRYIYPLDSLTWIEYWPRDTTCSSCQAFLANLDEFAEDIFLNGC
compound,measurement,setting,value
NC(=O)c1cc2cc(OCc3ccccc3)ccc2[nH]1,Kd,Complement factor D [1],> 30000 nM
same,solubility,[2],30 µM
COc1ccc(NC(=O)N[C@@H](C)c2ccccc2OC)cc1OCCCC(C)C,solubility thermodynamic at 16 h,[3],≤ 4 µM
same,IC50,Complement C5,≤ 5 nM
CC(N)c1ccc(C(=O)Nc2ccnc3[nH]ccc23)cc1 (configuration not stated),Activity,[4],3 mmHg
C[C@H]1CNCCCN1S(=O)(=O)c1cccc2cncc(F)c12,Activity,[5],1.6 mmHg
same,Activity,[6],0.9 mmHg
same,Activity,[7],-3.1 mmHg
same,Activity,[8],-2.6 mmHg
same,Activity,[9],-3.2 mmHg
same,Activity,[10],-3.7 mmHg
same,Activity,[11],1.4 mmHg
same,Activity,[12],-2.7 mmHg
COc1ccc(NC(=O)N[C@@H](C)c2ccccc2)cc1OCCCC(C)C,solubility thermodynamic at 16 h,[3],< 4 µM
same,IC50,Complement C5,440 nM
NC(=O)c1cc2cc(OCc3cccc(C(=O)O)c3)ccc2[nH]1,solubility,[2],2000 µM
O=C(CCC/C=C\C[C@@H]1[C@@H](CC[C@H](O)CCc2ccccc2)[C@H](O)C[C@@H]1O)OCCCCO[N+](=O)[O-],Activity,[13],8.3 mmHg
same,Activity,[14],4.3 mmHg
same,Activity,[15],0.4 mmHg
same,Activity,[16],1.3 mmHg
same,Activity,[17],3.5 mmHg
same,Activity,[18],1 mmHg
same,Activity,[19],1.3 mmHg
same,Activity,[20],0.7 mmHg
same,Activity,[21],9 mmHg
same,Activity,[22],5.3 mmHg
same,Activity,[23],0.9 mmHg
same,Activity,[24],0.9 mmHg
same,Activity,[25],1.1 mmHg
same,Activity,[26],8.9 mmHg
same,Activity,[27],0.8 mmHg
same,Activity,[28],3.6 mmHg
same,Activity,[29],2.3 mmHg
same,Activity,[30],0.8 mmHg
OCCc1ccc(O)c(O)c1 [HYDROXYTYROSOL],Activity,Rattus norvegicus [31],34%
same,Activity,Rattus norvegicus [32],9%
Cc1ccc(C(=O)OCc2ccc([C@@H](CN)C(=O)Nc3ccc4cnccc4c3)cc2)c(C)c1,t1/2,[33],2.92 h
same,t1/2,[34],2.33 h
same,t1/2,[35],1.63 h
same,t1/2,[36],2.6 h
same,t1/2,[37],1.82 h
COC(=O)c1ccccc1CNC(=O)N1CCC[C@H]1C(=O)Nc1cccc(OC(F)(F)F)c1,IC50,[38],9000 nM
COc1ccc(CCNC(=O)[C@@H]2CCCN2C(=O)NCc2cccc3ccccc23)cc1,IC50,[38],700 nM
same,IC50,Complement factor D [39],> 30000 nM
CCCCCCOc1cc(NC(=O)N[C@@H](C)c2ccccc2)ccc1OC,solubility thermodynamic at 16 h,[3],< 4 µM
same,IC50,Complement C5,210 nM
C[C@H](NC(=O)[C@@H]1C[C@H]2C[C@H]2N1C(=O)Cn1nc(C(N)=O)c2cccnc21)c1cccc(Cl)c1F,IC50,Complement factor D [40],70 nM
same,IC50,Complement factor D [41],140 nM
O=C(CCC/C=C\C[C@@H]1[C@@H](CC[C@@H](O)CCc2ccccc2)[C@H](O)C[C@@H]1O)OC(CO[N+](=O)[O-])CO[N+](=O)[O-],IC50,[42],55000 nM
NC(=O)c1nn(CC(=O)N2[C@@H]3C[C@@H]3C[C@H]2C(=O)Nc2cccc(Br)n2)c2ncccc12,IC50,Complement factor D [41],50 nM
COc1cc(C(=O)O)c(NC(=O)N[C@@H](C)c2ccccc2)cc1OCCCC(C)C,solubility thermodynamic at 16 h,[3],728 µM
same,IC50,Complement C5,620 nM
